# Laboratory results as given in US20110166121A1 (LG LIFE SCIENCES LTD., priority 2008, published 2011).
# Experiments:
# [1] = system: Human platelet aggregation caused by ADP; assay: Inhibition of ADP-induced platelet aggregation (Mimic-human PRP); assay type: cell-based; conditions: 20 μM ADP; for Ki: human platelet concentrate diluted with PPP, absorption at 595 nm
# How it was run: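 Human PRP diluted with PPP to 3–4×10^8 platelets/mL was preincubated 20 min at room temperature with compound (0.01–30 μM, DMSO), then stimulated with 20 μM ADP. Aggregation read as A595 increase at 3 min versus 0 and 20 μM ADP controls; Ki from sigmoidal non-linear regression.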
# Human P2Y12 receptor = target: T1, Human P2Y12 receptor (Homo sapiens, UniProt Q9H244); assay: Human P2Y12 receptor cell membrane binding assay with [3H] 2-Mes-ADP; conditions: 1 nM [3H] 2-Mes-ADP, membranes of HEK cells expressing P2Y12 receptor; read-out: Binding activity (IC50)
# T1 construct: expressed in transfected cells; host or cells: HEK cells
# T1 sequence (Q9H244 whole entry): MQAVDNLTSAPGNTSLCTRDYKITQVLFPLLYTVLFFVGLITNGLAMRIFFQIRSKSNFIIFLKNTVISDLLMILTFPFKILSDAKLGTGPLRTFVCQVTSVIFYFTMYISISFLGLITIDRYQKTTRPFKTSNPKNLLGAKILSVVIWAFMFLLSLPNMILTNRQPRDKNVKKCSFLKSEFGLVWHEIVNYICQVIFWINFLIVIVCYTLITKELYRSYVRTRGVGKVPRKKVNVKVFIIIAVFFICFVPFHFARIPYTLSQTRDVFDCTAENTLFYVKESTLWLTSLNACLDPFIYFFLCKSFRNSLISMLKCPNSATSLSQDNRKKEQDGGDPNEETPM
# How it was run: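 Membranes from HEK cells expressing human P2Y12 were incubated with compound and 1 nM [3H]2-MeS-ADP for 1 h at room temperature. Bound radioactivity was collected by GF/B filtration.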
Compound,Ki [1],IC50 (Human P2Y12 receptor),"inhibition at 40 µM ([1]; Homo sapiens, Platelet, 40 μM compound)"
"CCCc1cc2c(N3CCn4c(nnc4C(F)(F)C(F)(F)F)C3)nc(N3CCNCC3)nc2s1 [Example 6-5, 3-Pentafluoroethyl-7-(2-piperazin-1-yl-6-propyl-thieno[2,3-d]pyrimidin-4-yl)-5,6,7,8-tetrahydro-[1,2,4]triazolo[4,3-a]pyrazine]",940 nM,266 nM,
"CCCc1cc2c(N3CCn4c(nnc4C(F)(F)C(F)(F)F)C3)nc(N3CCN(C)CC3)nc2s1 [Example 6-6, 7-[2-(4-Methyl-piperazin-1-yl)-6-propyl-thieno[2,3-d]pyrimidin-4-yl]-3-pentafluoroethyl-5,6,7,8-tetrahydro-[1,2,4]triazolo[4,3-a]pyrazine]",,315 nM,49%
"CCCc1cc2c(N3CCn4c(nnc4C(F)(F)C(F)(F)F)C3)nc(NCCO)nc2s1 [Example 6-7, 2-[4-(3-Pentafluoroethyl-5,6-dihydro-8H-[1,2,4]triazolo[4,3-a]pyrazin-7-yl)-6-propyl-thieno[2,3-d]pyrimidin-2-ylamino]-ethanol]",407 nM,490 nM,
"CCCc1cc2c(N3CCn4c(nnc4C(F)(F)C(F)(F)F)C3)nc(OCC(O)CO)nc2s1 (stereo not drawn) [Example 6-8, 3-[4-(3-Pentafluoroethyl-5,6-dihydro-8H-[1,2,4]triazolo[4,3-a]pyrazin-7-yl)-6-propyl-thieno[2,3-d]pyrimidin-2-yloxy]-propane-1,2-diol]",95 nM,130 nM,
"CCCc1cc2c(N3CCn4c(nnc4C(F)(F)C(F)(F)F)C3)nc(OCCO)nc2s1 [Example 6-9, 2-[4-(3-Pentafluoroethyl-5,6-dihydro-8H-[1,2,4]triazolo[4,3-a]pyrazin-7-yl)-6-propyl-thieno[2,3-d]pyrimidin-2-yloxy]-ethanol]",30 nM,120 nM,
"CCc1cc2c(N3CCn4c(C)nnc4C3)nc(N3CCNC(=O)C3)nc2s1 [Example 6-12, 4-[6-Ethyl-4-(3-methyl-5,6-dihydro-8H-[1,2,4]triazolo[4,3-a]pyrazin-7-yl)-thieno[2,3-d]pyrimidin-2-yl]-piperazin-2-one]",809 nM,760 nM,
"CCc1cc2c(N3CCn4c(C)nnc4C3)nc(OCC(O)CO)nc2s1 (stereo not drawn) [Example 6-13, 3-[6-Ethyl-4-(3-methyl-5,6-dihydro-8H-[1,2,4]triazolo[4,3-a]pyrazin-7-yl)-thieno[2,3-d]pyrimidin-2-yloxy]-propane-1,2-diol]",716 nM,2460 nM,
"CCCc1cc2c(N3CCn4c(C)nnc4C3)nc(N3CCNC(=O)C3)nc2s1 [Example 6-14, 4-[4-(3-Methyl-5,6-dihydro-8H-[1,2,4]triazolo[4,3-a]pyrazin-7-yl)-6-propyl-thieno[2,3-d]pyrimidin-2-yl]-piperazin-2-one]",260 nM,322 nM,
"CCCc1cc2c(N3CCn4c(C)nnc4C3)nc(OCC(O)CO)nc2s1 (stereo not drawn) [Example 6-15, 3-[4-(3-Methyl-5,6-dihydro-8H-[1,2,4]triazolo[4,3-a]pyrazin-7-yl)-6-propyl-thieno[2,3-d]pyrimidin-2-yloxy]-propane-1,2-diol]",190 nM,400 nM,
"CCCc1cc2c(N3CCn4c(C)nnc4C3)nc(OCCO)nc2s1 [Example 6-16, 2-[4-(3-Methyl-5,6-dihydro-8H-[1,2,4]triazolo[4,3-a]pyrazin-7-yl)-6-propyl-thieno[2,3-d]pyrimidin-2-yloxy]-ethanol]",61 nM,310 nM,
"CCCc1cc2c(N3CCn4c(C)nnc4C3)nc(OCCCO)nc2s1 [Example 6-17, 3-[4-(3-Methyl-5,6-dihydro-8H-[1,2,4]triazolo[4,3-a]pyrazin-7-yl)-6-propyl-thieno[2,3-d]pyrimidin-2-yloxy]-propan-1-ol]",400 nM,750 nM,
"CCCc1cc2c(N3CCn4c(C)nnc4C3)nc(OCC(CO)CO)nc2s1 [Example 6-18, 2-[4-(3-Methyl-5,6-dihydro-8H-[1,2,4]triazolo[4,3-a]pyrazin-7-yl)-6-propyl-thieno[2,3-d]pyrimidin-2-yloxymethyl]-propane-1,3-diol]",300 nM,670 nM,
